Reference: PubChem BioAssay AID977630 (Broad Institute, 2014)
Records with an inconclusive call do not appear. Calls of active or inactive are those of the source.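 The calls were made as follows: active = Normal-ribosome green reporter loss at least double humanized-ribosome red reporter loss, with overall culture growth inhibition under a set limit; inconclusive = no clear call, values can overlap the other calls; inactive = the rest.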

Tested on: E. coli wild-type GFP growth, mixed culture, 24 h
Assay: growth inhibition of wild-type GFP E. coli, H38-humanized RFP comparator, dose response, H38 mutant RFP vs wild-type GFP, cherry-pick (AID 977630);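 also: wild-type GFP strain mixed equally with humanized-ribosome H38 mutant expressing RFP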
[1] = E. coli mixed culture total OD600 growth, 24 h

Row | SMILES | AC50 | AC50 [1] [µM]
1 | Cc1nn2c(NCc3ccccn3)cc(C(C)C)nc2c1-c1ccccc1 | > 100 µM (inactive) | 
2 | O=C(NCc1ccc2c(c1)OCO2)C1CCCN1S(=O)(=O)c1ccc(Cl)cc1 (stereo not drawn) | > 100 µM (inactive) | 
3 | O=C1c2ccccc2C(c2nnnn2C2CCCCC2)N1CCc1ccc(O)cc1 (stereo not drawn) | > 100 µM (inactive) | > 100
4 | COc1ccc(OC)c(NC(=O)CN(C)CC(=O)Nc2ccccc2Br)c1 | > 100 µM (inactive) | 
5 | O=c1[nH]nc(SCc2ccccc2)n1C1CC2C=CC1C2 (stereo not drawn) | > 100 µM (inactive) | 49.8
6 | COC(=O)c1sc(C(C)(C)C)cc1CS(=O)(=O)c1ccc(Cl)cc1 | > 100 µM (inactive) | 
7 | CSc1ncc(CN2CCCC(C(=O)c3cccc(Cl)c3)C2)cn1 (stereo not drawn) | > 100 µM (inactive) | > 100
8 | O=C(COC(=O)C1CC2C=CC1C2)Nc1ccc([N+](=O)[O-])cc1 (stereo not drawn) | > 100 µM (inactive) | > 100
9 | CCS(=O)(=O)N1CCN(c2ccnc3cc(Cl)ccc23)CC1 | > 100 µM (inactive) | > 100
10 | CCOc1ccc2nc(SCC(=O)Nc3nonc3C)[nH]c2c1 | > 100 µM (inactive) | > 100
11 | O=C(NCCc1csc(-c2ccccc2)n1)c1ccccc1F | > 100 µM (inactive) | 
12 | O=C(c1cnc(Cc2c[nH]c3ccccc23)c(I)c1)N1CCCCC1 | > 100 µM (inactive) | > 100
13 | CCN(CC)C(=O)c1ccc(COc2ccccc2Cl)o1 | > 100 µM (inactive) | > 100
14 | Cc1ccsc1C(=O)C1CCCN(Cc2cc(F)ccc2-n2cccn2)C1 (stereo not drawn) | > 100 µM (inactive) | > 100
15 | CCOC(=O)c1c(C)[nH]c(C)c1S(=O)(=O)NCCN1CCN(c2ccccc2F)CC1 |  | > 100
16 | O=C(Cc1c(Cl)cccc1Cl)Nc1cccc(S(=O)(=O)N2CCOCC2)c1 | > 100 µM (inactive) | 
17 | COC(=O)c1sccc1NC(=O)CNC(=O)c1ccccc1 |  | > 100
18 | CN(C)CCCN(C(=O)COc1ccc(Cl)cc1)c1nc2ccc(F)cc2s1 | > 100 µM (inactive) | 
19 | Cc1ccccc1Nc1c(-c2cccnc2)nc2ccc(Br)cn12 |  | > 100
20 | Cc1nn(C(C)(C)C)c(OC(=O)CC(C)C)c1S(=O)(=O)c1ccccc1 | > 100 µM (inactive) | 
21 | O=C(c1ccc(N2CCCCC2)c([N+](=O)[O-])c1)N1CCN(c2ccccn2)CC1 | > 100 µM (inactive) | > 100
22 | COc1cccc(-c2ccc(NC(=O)C3CCCN(Cc4cnn(C(C)C)c4)C3)cc2)c1 (stereo not drawn) |  | > 100
23 | O=C(NCCCCc1ccccc1)c1cccc(NC(=O)C2CCCCC2)c1 | > 100 µM (inactive) | > 100

Row | SMILES | AC50 | AC50 [1] [µM]
24 | O=C(Nc1cccnc1)c1ccc([N+](=O)[O-])o1 | > 100 µM (inactive) | 
25 | Cc1cc(C(=O)OCC(=O)Nc2cccc(S(N)(=O)=O)c2)c2ccccc2n1 | > 100 µM (inactive) | > 100
26 | CCOC(=O)C1(CCCc2ccccc2)CCN(C(=O)CCn2cncn2)CC1 | > 100 µM (inactive) | 
27 | COc1ccccc1Cc1c(-c2ccc(F)cc2)nc2ccc(Br)cn12 | > 100 µM (inactive) | 
28 | CC(=O)OC(COc1cccc(C)c1)Cn1cnc2ccccc21 (stereo not drawn) | > 100 µM (inactive) | > 100
29 | CC(=O)N1CCOc2ccc(S(=O)(=O)N(C)c3ccc(C)cc3)cc21 | > 100 µM (inactive) | 
30 | Cn1cc(CN2CCCC(C(=O)c3cccs3)C2)c(-c2cccc(Cl)c2)n1 (stereo not drawn) | > 100 µM (inactive) | 
31 | O=C(Nc1cccc(Oc2ccc3c(c2)C(=O)NC3=O)c1)c1cccs1 | > 100 µM (inactive) | 
32 | CCOc1ccc(OCCn2c(=S)[nH]c3c(N)ncnc32)cc1 | > 100 µM (inactive) | 
33 | COC(=O)c1ccc(OS(=O)(=O)c2ccc(NC(C)=O)cc2)cc1 | > 100 µM (inactive) | > 100
34 | O=C(CCNc1cccc(Cl)c1)c1cccs1 | > 100 µM (inactive) | 
35 | S=c1nc(-c2cccc(Br)c2)[nH][nH]1 |  | > 100
36 | COc1cc(NC(=O)COC(=O)CC(C)(C)C)c(C)cc1[N+](=O)[O-] | > 100 µM (inactive) | > 100
37 | CCOc1ccccc1NC(=O)c1cc(SC)ccc1Cl | > 100 µM (inactive) | 
38 | COc1ccccc1CNC(=O)CN1C(=O)NC(c2ccccc2)(c2ccccc2)C1=O | > 100 µM (inactive) | > 100
39 | CC1(C)CC2CC(C)(CN2c2ncnc3ccccc23)C1 (stereo not drawn) | > 100 µM (inactive) | > 100
40 | Cc1ccc(SCC(=O)Nc2ccc(S(=O)(=O)Nc3nccs3)cc2)cc1 | > 100 µM (inactive) | 
41 | CC(=O)Nc1ccc(S(=O)(=O)Nc2cccc(-c3nc4cc(C)ccc4o3)c2)cc1 | > 100 µM (inactive) | > 100
42 | Cc1ccc(Cl)cc1N1CCN(C(=O)c2ccc3nc[nH]c3c2)CC1 | > 100 µM (inactive) | 
43 | Cc1nn(-c2cccc(Cl)c2)nc1C(=O)O | > 100 µM (inactive) | 
44 | Cc1cccc(C(=O)NCC(=O)NCCSc2ccc(Br)cc2)c1 | > 100 µM (inactive) | 
45 | CC(=O)NCCOc1nc(N2CCCCC2)nc(N2CCCCC2)n1 | > 100 µM (inactive) | > 100
46 | Cc1ccc(-n2nc(C)c3c(C)c(CCC(=O)O)c(C)nc32)cc1C | > 100 µM (inactive) | > 100

Row | SMILES | AC50 | AC50 [1] [µM]
47 | CC(=O)Nc1ccc(OCC(=O)N2CCC(Cc3ccccc3)CC2)cc1 | > 100 µM (inactive) | 
48 | CS(=O)(=O)c1ccc(Cl)c(NC(=O)CSc2nncn2-c2ccccc2)c1 | > 100 µM (inactive) | 
49 | COc1cc2cc(C(=O)Nc3ccc4c(c3)OCCO4)[nH]c2cc1OC | > 100 µM (inactive) | > 100
50 | CC(=O)Nc1nc(C)c(-c2csc(Nc3ccccn3)n2)s1 | > 100 µM (inactive) | 
51 | COC(=O)c1ccsc1NC(=O)c1cccc(OC)c1 |  | > 100
52 | Cc1nnn(C23CC4CC(CC(CC(=O)Nc5ccc(C)c(C)c5)(C4)C2)C3)n1 | > 100 µM (inactive) | 
53 | Cc1ccc(NC(=O)COC(=O)CCNS(=O)(=O)c2c(Cl)cccc2Cl)cc1 |  | > 100
54 | Cc1ccc(S(=O)(=O)Nc2ccccc2CNc2cccc(C)n2)cc1 | > 100 µM (inactive) | 
55 | COc1ccc2[nH]c3c(=O)n(CCCCC(=O)NCCC(C)C)c(=S)[nH]c3c2c1 | 2.42 µM | > 100
56 | Nc1ccc(C(=O)Nc2ccc3nc(-c4ccncc4)[nH]c3c2)cc1 |  | > 100
57 | COc1ccccc1CN1Cc2ccccc2Oc2ccccc2S1(=O)=O | > 100 µM (inactive) | > 100
58 | CCOc1ccc2nc(NC(=O)CSc3nc(SC)ns3)sc2c1 | > 100 µM (inactive) | > 100
59 | CCN(CC)CCNC(=O)c1cc2cc3ccc(OC)cc3nc2o1 | > 100 µM (inactive) | 
60 | O=[N+]([O-])c1ccccc1Oc1ccc(Cl)c2cccnc12 | > 100 µM (inactive) | 
61 | O=C(Nc1ccc(C(=O)Nc2ccccc2Cl)cc1)c1cccnc1 | > 100 µM (inactive) | 
62 | CC(=O)N1CCN(c2nc(-c3cccs3)nc3ccccc23)CC1 | > 100 µM (inactive) | 
63 | O=C(CCCn1c(=S)[nH]c2ccsc2c1=O)Nc1ccc2c(c1)OCCO2 | > 100 µM (inactive) | > 100
64 | Cc1ccc(S(=O)(=O)N2CCCCC2C(=O)N2CCN(c3ccccc3F)CC2)cc1 (stereo not drawn) |  | > 100
65 | CCCCOc1ccc(-c2nnn(CCC(=O)N3CCOCC3)n2)cc1 |  | > 100
66 | Cc1ccc(-c2cc(-c3ccc(C)cc3)[n+](-c3ccc(C(=O)[O-])cc3)c(-c3ccc(C)cc3)c2)cc1 | > 100 µM (inactive) | 
67 | COC(=O)c1cc2c(c3c4cc(F)ccc4n(S(=O)(=O)c4ccccc4)c13)C(=O)N(Cc1ccco1)C2 | > 100 µM (inactive) | 
68 | COC(=O)c1cc(C(=O)c2c(C)cc3ccccn23)cc([N+](=O)[O-])c1 |  | > 100
69 | CC(C)(C)CC(=O)NCCc1csc(-c2ccccc2)n1 | > 100 µM (inactive) | 

Row | SMILES | AC50 | AC50 [1] [µM]
70 | O=c1[nH]c(C2CCCN(S(=O)(=O)c3ccccc3Cl)C2)nc2c1nnn2Cc1ccc2c(c1)OCCO2 (stereo not drawn) | > 100 µM (inactive) | > 100
71 | CCN(CC)S(=O)(=O)c1ccc(N2CCCC2)c(NC(=O)c2ccccc2OC)c1 |  | > 100
72 | C=CCN(c1ccccc1)S(=O)(=O)c1ccc(Cl)c(C(=O)OCC(=O)NCCCN2CCCC2=O)c1 |  | > 100
73 | O=C(CCCOc1ccc(Cl)cc1Cl)Nc1ccccc1C(=O)O | > 100 µM (inactive) | > 100
74 | Cc1cccc(Oc2ccc(NC(=O)c3ccccc3C(=O)O)cc2)c1 | > 100 µM (inactive) | 
75 | CC(C)(CC(=O)O)CC(=O)NCc1c(Cl)cccc1Sc1ccc(Cl)cc1 | > 100 µM (inactive) | 
76 | CC(=O)c1c(C)nn(CC(O)COc2ccc3c(c2)CCC3)c1C (stereo not drawn) | > 100 µM (inactive) | > 100
77 | C=CCn1c(C)cc(C(=O)CSc2nnc(C3CC3)n2C2CC2)c1C | > 100 µM (inactive) | > 100
78 | Cc1cccc(NC(=O)CN(C)S(=O)(=O)c2cccs2)c1 | > 100 µM (inactive) | 
79 | CCCc1nc2oc3c(NCCCN(C)C)ncnc3c2c2c1CCCC2 | > 100 µM (inactive) | > 100
80 | O=C(c1ccc(-n2cccn2)cc1)N1CCc2ccccc2C1 | > 100 µM (inactive) | 
81 | Cc1cccc(CN2C(=O)c3ccccc3Sc3ccc(C(=O)NCCN4CCOCC4)cc32)c1 |  | > 100
82 | N#Cc1nc(-c2ccco2)oc1NCc1ccccc1Cl | > 100 µM (inactive) | 41.5
83 | O=C(COC(=O)C1CC1)Nc1nc(-c2ccc(F)c(F)c2)cs1 | > 100 µM (inactive) | 
84 | Oc1c(Br)cc(Br)cc1Br | > 100 µM (inactive) | 
85 | CCn1c(-c2ccccc2Cl)nn(CC(=O)Nc2ccccc2OC)c1=S | > 100 µM (inactive) | > 100
86 | Brc1ccc(Nc2ncnc3[nH]ncc23)cc1 | > 100 µM (inactive) | 
87 | Cc1ccc(-c2nc(CN3CCCCC3c3cccc(F)c3)c(C)o2)o1 (stereo not drawn) | > 100 µM (inactive) | 
88 | O=C(NCc1ccco1)c1ccc(COc2cccc3ccccc23)cc1 | > 100 µM (inactive) | 
89 | CCN(c1ccccc1)S(=O)(=O)c1ccc(OC)c(NC(=O)C2CC(=O)N(Cc3ccccc3)C2)c1 (stereo not drawn) | > 100 µM (inactive) | 
90 | Nc1ccccc1Nc1ccc([N+](=O)[O-])cc1[N+](=O)[O-] | > 100 µM (inactive) | 
91 | COC(=O)CC#C[C@H](C)[C@@H](NS(=O)(=O)c1ccc([N+](=O)[O-])cc1)C(C)(C)C | > 100 µM (inactive) | 
